# Results as given in US5356775A, “Primary structure for functional expression from complementary DNA of a mammalian ATP-sensitive potassium channel” (Brigham & Women's Hospital, priority 1992, dated 1994).
# Entries after “also recorded” stand apart in the source; their conditions may differ.
# Experiments:
# ROMK1 K+ channels = molecular target: T1, ROMK1 K+ channels (Rattus norvegicus, UniProt P35560); test: Single channel patch clamp recording, inside-out patches excised from ROMK1 mRNA-injected Xenopus oocytes; format: cell-based
# T1 construct: This coding region encodes a protein of 391 amino acids; expressed in transfected cells; host or cells: Xenopus laevis oocytes injected with cRNA transcribed in vitro from ROMK1 cDNA (pSPORT1)
# T1 sequence (P35560 1-391): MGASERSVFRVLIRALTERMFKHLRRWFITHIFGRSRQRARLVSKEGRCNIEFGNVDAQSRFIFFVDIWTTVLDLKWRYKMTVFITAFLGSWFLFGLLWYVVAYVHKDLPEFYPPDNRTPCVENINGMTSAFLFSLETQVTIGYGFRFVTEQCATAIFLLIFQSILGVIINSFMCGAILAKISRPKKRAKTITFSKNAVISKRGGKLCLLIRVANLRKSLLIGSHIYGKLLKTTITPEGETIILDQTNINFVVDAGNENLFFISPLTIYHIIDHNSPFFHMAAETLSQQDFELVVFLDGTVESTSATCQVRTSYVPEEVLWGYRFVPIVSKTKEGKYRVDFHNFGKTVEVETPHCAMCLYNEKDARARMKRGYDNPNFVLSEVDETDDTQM
# Description: FIG. 2. Single channel characteristics of ATP-sensitive ROMK1 K^+ channels expressed in Xenopus oocytes. Channel activities were recorded in inside-out patches excised from oocyte membranes.
# Changes made in bath solution ATP concentration are indicated above the current recording: ATP-free (solid line), 0.025 mM ATP (dashed line). Recordings were taken at VH =-80 mV. Interruptions were introduced into the recording shown in order to display the entire current tracing. Expanded current tracings taken from the continuous recording are indicated by numbers and arrowheads.
# (E) The inhibitory effect of 2.5 mM ATP on channel activity. Changes in bath solution ATP concentration are indicated above the current recording; 0.025 mM ATP (dashed line), 2.5 mM ATP (solid line). […] The recording was taken at VH =-40 mV. Expanded current tracings taken from the recording at various time intervals are indicated by arrows and numbers. The pipette solution contained (mM): 150 or 50 KCl, 1 CaCl2, 1 MgCl2, 5 HEPES (pH 7.4). The bath solution contained (mM): 0,0.025 or 2.5 MgATP, 150 KCl, 1 MgCl2 , 5 EGTA, 5 HEPES (pH 7.4).
# Single channel recordings were obtained in oocytes injected with ROMK1 mRNA following vitelline membrane removal using standard patch clamp techniques to further characterize the properties of ROMK1 K^+ currents (FIG. 2). […] At negative membrane potentials, the amplitude of inward currents increased linearly with increasing hyperpolarization relative to Erev (Erev =O mV for symmetrical K^+ solutions). […] Similar inwardly rectifying currents were also observed in the cell-attached patch configuration. The K^+ selectivity of these currents was confirmed by varying the pipette solution K^+ concentration ([K^+ ]ext). Reversal potentials obtained with pipette solutions containing either 150 mM KCl or 50 mM KCl+100 mM NaCl were in complete agreement with the Nernstian predictions for Erev under these conditions (FIGS. 2B, 2C); the permeability ratio (PNa /PK) of 0.025 for these channels indicates high K^+ selectivity. […] Epithelial KATP channels (classified as Type 3) present in renal tubular cells from the thick ascending limb of Henle and the conical collecting duct (Bliech et al., Pflugers Arch. 415:449 (1990); Wang et al., Am. J. Physiol. 258:F244 (1990); Wang et al., Am. J. Physiol. 259:F494 (1990)) have single conductances of ~25-60 pS and share similar characteristics.
# The effect of intracellular ATP on ROMK1 currents was also investigated using the inside-out patch configuration. […] In contrast, channel activity was routinely maintained for 30 minutes or longer by excision of patches directly into a bath solution containing 25 μM MgATP. […] Channels with these properties and electrophysiological characteristics were never observed in either cell-attached or inside-out patches from H2 O-injected control oocytes; in contrast, several channels of this type were typically active in patches from ROMK1 mRNA-injected oocytes. The incidence of ROMK1 channels in patches was 94% (63 of 67 patches) which was consistent with the high channel density observed in these experiments. […] In channels of both types, channel rundown rapidly occurs in excised membrane patches; this loss of channel activity is reversed or prevented, at least partially, by the addition of MgATP (Ashcroft et al., Cellular Signalling 2:197 (1990); Ashcroft, F. M., Ann. Rev. Neurosci. 11:97 (1988); Nichols et al., Am. J. Physiol. 261:H1675 (1991); Wang et al., J. Gen. Physiol. 98:35 (1991)).
# [1] = molecular target: renal Type 3 KATP channels; conditions: read-out: Ki of intracellular ATP; cited from earlier work
# [2] = tested on: Type 1 channels in pancreatic β-cells; conditions: read-out: Ki of intracellular ATP; cited from earlier work
# [3] = molecular target: Type 1 channels in cardiac myocytes; conditions: read-out: Ki of intracellular ATP; cited from earlier work
# [4] = molecular target: Type 2 KATP channels (central neurons); conditions: central neurons (e.g. ventromedial hypothalamic nucleus), read-out: Ki of ATP; cited from earlier work
# ROMK1 = molecular target: T2, ROMK1 (Rattus norvegicus, UniProt P35560); test: Two-electrode voltage clamp of Xenopus oocytes injected with ROMK1 mRNA; format: cell-based; conditions: 10 mM, [K+]ext = 50 mM, test potentials -60 to 0 mV
# T2 construct: This coding region encodes a protein of 391 amino acids; expressed in transfected cells; host or cells: Xenopus laevis oocytes injected with cRNA transcribed in vitro from ROMK1 cDNA (pSPORT1)
# T2 sequence (P35560 1-391): T1 sequence (P35560 1-391)
# Description: (E) Representative current tracings in oocytes injected with ~0.3 ng ROMK1 mRNA or H2 O evoked by 450 ms test pulses from a VH =-45 mV to test potentials from -60 mV to 0 mV in 20 mV increments in the presence or absence of 10 mM Ba2+, [K+ ]ext =50 mM. ROMK1 currents were blocked by 10 mM Ba^2+ at the test potentials used.
# (§1) Size-fractionated mRNA with a size of ~2-3 kb yielded a highly augmented mean inward IK(Ba) sixteen-fold greater than that of H2 O-injected controls when injected into oocytes (FIG. 1D) and was therefore used to construct a directional cDNA library in the vector pSPORT1. RNA transcribed in vitro from pooled clones using T7 RNA polymerase was injected into Xenopus oocytes and tested for IK(Ba) currents using two-electrode voltage clamping. Functional screening of cRNA led to the identification of a 2.1 kb cDNA, ROMK1.
# [5] = tested on: Ba2+-sensitive potassium currents (IK(Ba)) expressed from rat kidney ISOM poly(A)+ RNA; test: Two-electrode voltage clamp of Xenopus oocytes injected with rat kidney ISOM poly(A)+ RNA; format: cell-based; conditions: 5 mM Ba2+, [K+]ext = 50 mM, test potentials -80 to 0 mV
# Description: (A) Representative current tracings evoked by 450 ms voltage steps ranging from -80 mV to 0 mV in 20 mV increments from a holding potential (VH) of -60 mV in oocytes injected with ~25 ng ISOM poly(A)^+ RNA or 50 nl H2 O [K^+ ]ext =50 mM.
# (B) Current-voltage relationships of IK(Ba) in a representative ISOM poly(A)^+ RNA-injected oocyte ( ) and a H2 O-injected control (.circle.). […] Both current amplitudes and Vm were measured 75 ms after initiation of test pulses; Ba^2+ -sensitive current (KK(Ba)) amplitudes were obtained by determining the difference in current amplitudes before and after the addition of 5 mM Ba^2+ at each test potential and plotted as a function of observed Vm.
# as §1
compound,measurement,setting,value
Nc1ncnc2c1ncn2[C@@H]1O[C@H](COP(=O)(O)OP(=O)(O)OP(=O)(O)O)[C@@H](O)[C@H]1O [ATP],effect on channel activity of high ATP at the cytosolic face of inside-out patches,"ROMK1 K+ channels; 1.0-2.5 mM ATP, patches initially excised into bath containing 25 μM ATP",rapid and marked inhibition of channel activity
same,effect of 2.5 mM ATP on channel activity,"ROMK1 K+ channels; ATP raised from 0.025 mM to 2.5 mM by puffer pipette, VH = -40 mV",inhibition of channel activity
same,restoration of channel activity following channel rundown,ROMK1 K+ channels; readdition of 25 μM (0.025 mM) ATP after ATP-free bath,Partial restoration of channel activity; also recorded: channel recovery
same,reversibility of inhibition by ATP,ROMK1 K+ channels; wash-out of the high ATP-containing solution,reversible
same,Ki,[1],200 to 500 µM
same,Ki,[2],10 to 20 µM
same,Ki,[3],17 to 100 µM
same,Ki,[4],2000 to 3000 µM
[Ba+2] [Ba^2+],inhibition (block) of ROMK1 currents,ROMK1,blocked
same,inhibition of currents expressed in RNA-injected oocytes,[5],marked inhibition
Nc1ncnc2c1ncn2[C@@H]1O[C@H](COP(=O)(O)OP(=O)(O)OP(=O)(O)O)[C@@H](O)[C@H]1O [MgATP],time channel activity was maintained in excised patches,ROMK1 K+ channels; patches excised directly into bath solution containing 25 μM MgATP,≥ 30 min
CC[N+](CC)(CC)CC [TEA^+],inhibition (block) of ROMK1 currents,ROMK1,no inhibition
